Experimental findings from PMC9241669, “Allantodapsone is a Pan-Inhibitor of Staphylococcus aureus Adhesion to Fibrinogen, Loricrin, and Cytokeratin 10” (Microbiology Spectrum, 2022) are described below.

Where two headings read alike, the source gives them in different places.

The target in series [1] is recombinant ClfB N2N3 (Staphylococcus aureus, UniProt O86476). Nature of the series: ELISA of recombinant ClfB N2N3 binding to immobilized GST-L2v loricrin. The arrangement: species or system S. aureus. Particulars: allantodapsone 100 μM; ClfB 5 μM; P < 0.0001. On the procedure:
FIG 4 Allantodapsone inhibits S. aureus adhesion to loricrin and cytokeratin 10. Dose-response curve for adhesion of S. aureus Newman to GST-L2v loricrin (A) and CK10 (C). (B) Inhibition of recombinant ClfB N2N3 binding to immobilized GST-L2v loricrin by allantodapsone. (D) Inhibition of S. aureus Newman adhesion to GST-L2v loricrin by allantodapsone derivatives. Purified GST-L2v or CK10 were used to coat plates at 4°C overnight. Wells were washed with PBS and blocked with 1% BSA. Washed bacteria (OD600 of 1) were mixed with allantodapsone or vehicle control before being added to the wells and incubated for 2 h at 37°C. Adherent cells were washed, fixed, and stained with crystal violet, and wells further washed. The dye was dissolved in acetic acid, and the absorbance measured at 570 nm. GST-L2v was used at 20 μM in A and D. CK10 was used at 10 nM. […] Bound ClfB was detected using peroxidase-conjugated anti-His monoclonal antibody in an ELISA. […]
Recombinant GST-tagged L2v loricrin (120 nM) was coated onto a microtiter plate (Nunc Maxisorb) in sodium carbonate buffer (15 mM Na2CO3, 35 mM NaHCO3, pH 9.6) for 16 h at 4°C. […] Bound ClfB was detected with peroxidase-conjugated anti-His monoclonal antibody in 1% (wt/vol) skimmed milk proteins in PBS. […] The reaction was stopped by the addition of 2 M H2S0_4 (50 μL/well), and the A450 was measured in a plate reader (Labsystems).
(In general: An ELISA detects its analyte on a solid surface through an enzyme-linked reagent.)

Series [2] deals with U-937 cells. It counts as cell-based, human. Particulars: 100 μM, undifferentiated U-937 monocyte cells, n=2, preliminary. On the procedure:
(§1) V. Microbiology: Materials and Methods
(§2) The MTT toxicity assay (1) (Vybrant MTT Cell Proliferation Assay, Molecular Probes, Or, USA) was used to measure cytotoxicity. Myeloid lineage, U-937 cells (2) were grown in RPMI-1640 (Gibco) culture medium supplemented with 10% foetal calf serum, 1% L-glutamine and 1% Penicillin/Streptomycin (Gibco). U-937 cells were centrifuged and cells diluted with fresh medium containing 1.2 mM MTT solution to a concentration of (5-6 x 10^6 per mL) and incubated at 37 °C for 2 h. Cells were centrifuged and the pellet dissolved in DMSO. The absorbance was read at 490 nm using the Wallac Victor2, (Shelton, Connecticut, USA).
(§3) Platelet aggregation was performed in platelet rich plasma according to O’Brien et al.
(§4) S. aureus Newman (stationary phase) was washed and diluted to an OD600 of 2.5.
(§5) This was mixed with 10 mg/mL of fibrinogen in 1:1 ratio resulting in a final concentration 5 mg/mL fibrinogen. Fibrinogen -bacteria aggregates clump and settle at the bottom of the tube resulting in a clear solution. These were compared to the turbid bacterial suspension in buffer by visual inspection. […]
was tested for toxicity using the MTT assay (VybrantTM MTT Cell Proliferation Assay, Molecular Probes, OR, USA). 10% DMSO is used as a positive control in this assay.
Allantodapsone was incubated with undifferentiated U-937 monocyte cells at 100
µM. […]

Series [3] relates to S. aureus Newman. The series is described as follows: Agglutination (fibrinogen clumping) assay. It is filed as cell-based, Staphylococcus aureus. Conditions: 100 μM allantodapsone; 5 mg/mL fibrinogen; stationary phase. Here is the method:
as §1, §2, §3, §4, §5
of S. aureus Newman was used as an agonist to stimulate platelet aggregation. The FcγRIIa antibody IV.3 (StemCell Technologies, London, UK) was used at a concentration of […]. […] Data was analysed by repeated measures ANOVA followed by a multiple comparison Dunnett’s test. […]

Chain of recombinant ClfB N2N3 (O86476 201-542): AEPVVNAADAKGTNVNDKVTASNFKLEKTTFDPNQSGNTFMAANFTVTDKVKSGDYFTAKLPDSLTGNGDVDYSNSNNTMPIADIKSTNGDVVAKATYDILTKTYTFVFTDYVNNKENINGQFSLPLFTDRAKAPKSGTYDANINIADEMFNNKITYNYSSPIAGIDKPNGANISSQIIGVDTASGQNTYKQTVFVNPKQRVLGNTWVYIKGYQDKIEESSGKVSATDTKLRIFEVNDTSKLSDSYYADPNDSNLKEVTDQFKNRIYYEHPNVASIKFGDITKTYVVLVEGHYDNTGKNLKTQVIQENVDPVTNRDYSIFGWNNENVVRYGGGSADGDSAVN

With `Nc1ccc(S(=O)(=O)c2ccc(NCN3C(=O)NC(=O)C(=O)C3=O)cc2)cc1` [Allantodapsone], the “inhibition of recombinant ClfB binding to L2v loricrin” value in series [1] is “inhibited”. Moreover, the “toxic effect on human cells, MTT (words)” value was “no toxic effect” in series [2] and “no toxic effects” in series [2] (listed as allantodapsone). The “inhibition of clumping of bacteria in fibrinogen” value in series [3] is “did not inhibit”.
